# Numbers after ± are expanded uncertainties.
# Test: activity coefficient (dimensionless); of the first substance listed, at infinite dilution; xn = mol fraction of the nth substance listed
# Conditions: Liquid, Chromatography, x1 = 0
smiles,measurement,setting,value
CCCC [butane] + CCCO,activity coefficient,260.05 K,5.17 ± 0.23
same,activity coefficient,280.05 K,5.06 ± 0.22
same,activity coefficient,299.99 K,5.03 ± 0.22
same,activity coefficient,320.05 K,4.88 ± 0.22
C=CCC [1-butene] + CCCO,activity coefficient,260.03 K,4.13 ± 0.18
same,activity coefficient,280.04 K,4.12 ± 0.18
same,activity coefficient,299.98 K,4.11 ± 0.18
same,activity coefficient,320.03 K,4.05 ± 0.18
same,activity coefficient,340 K,4.01 ± 0.18
C=C(C)C [2-methylpropene] + CCCO,activity coefficient,259.91 K,4.09 ± 0.18
same,activity coefficient,279.95 K,4.08 ± 0.18
same,activity coefficient,299.94 K,4.04 ± 0.18
same,activity coefficient,320.06 K,4 ± 0.18
same,activity coefficient,340.16 K,3.94 ± 0.17
C=CC [propene] + CCCO,activity coefficient,259.92 K,3.58 ± 0.16
same,activity coefficient,279.94 K,3.61 ± 0.16
same,activity coefficient,300.03 K,3.66 ± 0.16
same,activity coefficient,320.02 K,3.64 ± 0.16
same,activity coefficient,340.1 K,3.64 ± 0.16
C/C=C/C [(E)-2-butene] + CCCO,activity coefficient,260.02 K,4.2 ± 0.19
same,activity coefficient,280.03 K,4.15 ± 0.18
same,activity coefficient,299.99 K,4.1 ± 0.18
same,activity coefficient,320.09 K,4.06 ± 0.18
same,activity coefficient,340.06 K,3.98 ± 0.18
CCC [propane] + CCCO,activity coefficient,259.98 K,4.6 ± 0.2
same,activity coefficient,279.96 K,4.62 ± 0.2
same,activity coefficient,299.96 K,4.64 ± 0.2
same,activity coefficient,320.03 K,4.61 ± 0.2
same,activity coefficient,339.95 K,4.56 ± 0.2
"C=CC=C [1,3-butadiene] + CCCO",activity coefficient,260.02 K,4.2 ± 0.19
same,activity coefficient,280.03 K,4.15 ± 0.18
same,activity coefficient,299.99 K,4.1 ± 0.18
same,activity coefficient,320.09 K,4.06 ± 0.18
same,activity coefficient,340.06 K,3.98 ± 0.18
CC(C)C [2-methylpropane] + CCCO,activity coefficient,259.98 K,5.48 ± 0.24
same,activity coefficient,279.94 K,5.37 ± 0.24
same,activity coefficient,300.16 K,5.24 ± 0.23
same,activity coefficient,320 K,5.14 ± 0.23
same,activity coefficient,339.92 K,5.05 ± 0.22

# Reference: the NIST ThermoML archive (doi:10.1016/j.jct.2003.08.018)
